Data: patent publication US20110015248A1, “SUBSTITUTED HETEROCYCLES” (INTERMED DISCOVERY GMBH, priority 2003, published 2011)

Test system: not given
Assay: not given
Settings: not given

| melting point [°C] | SMILES |
| --- | --- |
| 144 | CCCCCC(O)[C@H]1C(=O)N[C@@]2(C(O)[C@@H]3C=CCCC3)C(=O)O[C@@]12C (stereo partly drawn) |
| 138 | CCCCCC[C@H]1C(=O)N[C@](C(=O)SCc2ccccc2)([C@@H](O)[C@@H]2C=CCCC2)[C@@]1(C)O (stereo in doubt) |
| 82 | CCCCCC[C@H]1C(=O)N[C@](C(=O)SCCNC(C)=O)([C@@H](O)[C@@H]2C=CCCC2)[C@@]1(C)O (stereo in doubt) |
| 85 | CCCCCC[C@H]1C(=O)N[C@](C(=O)SC2CCCCC2)([C@@H](O)[C@@H]2C=CCCC2)[C@@]1(C)O (stereo in doubt) |
| 80 | CCCCCC(O)[C@H]1C(=O)N[C@](C(=O)SCCNC(C)=O)([C@@H](O)[C@@H]2C=CCCC2)[C@@]1(C)O (stereo in doubt) |
| 75 | CCCCCC(O)[C@H]1C(=O)N[C@](C(=O)SCC(=O)OC)([C@@H](O)[C@@H]2C=CCCC2)[C@@]1(C)O (stereo in doubt) |
| 132 | CCCCCC[C@H]1C(=O)N[C@](C(=O)SCCC(=O)OC)([C@@H](O)C2CCCCC2)[C@@]1(C)O (stereo in doubt) |
| 167 | CCCCCC[C@H]1C(=O)N[C@@]2([C@@H](O)C3CCCCC3)C(=O)O[C@@]12C (stereo in doubt) |
| 123 | CCCCCC(O)[C@H]1C(=O)N[C@](C(=O)SCc2ccccc2)([C@@H](O)[C@@H]2C=CCCC2)[C@@]1(C)O (stereo in doubt) [Example 14, 2-(Cyclohex-2-enyl-hydroxy-methyl)-3-hydroxy-4-(1-hydroxy-hexyl)-3-methyl-5-oxo-pyrrolidine-2-carbothioic acid S-benzyl ester] |
| 181 | CCCCCC[C@H]1C(=O)N[C@](C(=O)SCc2ccccc2)([C@@H](O)C2CCCCC2)[C@@]1(C)O [Example 17, 2-(Cyclohexyl-hydroxy-methyl)-4-hexyl-3-hydroxy-3-methyl-5-oxo-pyrrolidine-2-carbothioic acid S-benzyl ester] |

| SMILES | melting point [°C] |
| --- | --- |
| CCCCCC[C@H]1C(=O)N[C@](C(=O)SCCC(=O)OC)([C@@H](O)[C@@H]2C=CCCC2)[C@@]1(C)O [Example 12, 3-[2-(Cyclohex-2-enyl-hydroxy-methyl)-4-hexyl-3-hydroxy-3-methyl-5-oxo-pyrrolidine-2-carbonylsulfanyl]-propionic acid methyl ester] | 64 |

Molecular target: T1, Human red blood cell S20 proteasome (Homo sapiens, UniProt P28074)
T1 construct: host or cells: human red blood cells (native tissue preparation)
Assay: Proteasome inhibition assay
Assay type: biochemical
Settings: not given
Description: The test compound is diluted at various concentrations in 2.5% DMSO in a polypropylene 96 well plate. […] The diluted working solution (10 μl/well) is transferred into a polypropylene 96 well plate. The assay buffer consists of 50 mM Tris-HCl (pH 8.0), 0.5 mM EDTA, 0.005% TritonX-100, 0.005% SDS, prepared as a stock solution at 10× concentration. The peptide substrate (Suc-Leu-Leu-Val-Tyr-MCA; 3120v; Peptide Institute; Osaka, Japan) is stored at 10 mM in 100% DMSO. […] The compound and the substrate are preincubated for 10 min at room temperature. Then the mixture of the compound and the substrate (10 μl/well) is transferred to a black non-coated 384 well assay plate (Nunc) and autofluorescence emission is measured at 460 nm (λex, 360 nm) by using a ARVO fluorescence plate leader (Perkin Elmer, Tokyo, Japan).
Human red blood cell S20 proteasome are obtained from Affinity research products Ltd (Cat#PW8720; Exeter, UK) and stored at −80° C. The proteasome is diluted 1 in 1000 with 1× concentration of the assay buffer and 10 μl is added to the substrates and the inhibitor mixture in the plate. The proteolytic reaction is performed at room temperature. The fluorescence emission is continuously measured for 90 min. IC50 values of the compounds are determined at initial velocity of the reaction.

| SMILES | IC50 [nM] |
| --- | --- |
| CCCCCC[C@H]1C(=O)N[C@@]2([C@@H](O)[C@@H]3C=CCCC3)C(=O)O[C@@]12C [Example 1, (1R,4R,5S)-1-[(S)-(1S)-2-cyclohexen-1-yl(hydroxy)methyl]-4-hexyl-5-methyl-6-oxa-2-aza-bicyclo[3.2.0]heptane-3,7-dione] | 1 |
| CCCCCC[C@H]1C(=O)N[C@](C(=O)SCCC(=O)OC)([C@@H](O)[C@@H]2C=CCCC2)[C@@]1(C)O [Example 12, 3-[2-(Cyclohex-2-enyl-hydroxy-methyl)-4-hexyl-3-hydroxy-3-methyl-5-oxo-pyrrolidine-2-carbonylsulfanyl]-propionic acid methyl ester] | 0.2 |

Same assay, conditions: substrate Suc-Leu-Leu-Val-Tyr-MCA; room temperature; IC50 determined at initial velocity of the reaction; read-out: IC50

| IC50 [nM] | SMILES |
| --- | --- |
| 305 | CCCCCC(O)[C@H]1C(=O)N[C@](C(=O)O)(C(O)[C@@H]2C=CCCC2)[C@@]1(C)O (stereo partly drawn) [Example 4, (3S,4R)-2-[(S)-(1S)-2-cyclohexen-1-yl(hydroxy)methyl]-3-hydroxy-4-[1-hydroxy-hexyl]-3-methyl-5-oxo-D-proline] |
| 106 | CCCCCC[C@H]1C(=O)N[C@](C(=O)SCc2ccccc2)([C@@H](O)C2CCCCC2)[C@@]1(C)O [Example 17, 2-(Cyclohexyl-hydroxy-methyl)-4-hexyl-3-hydroxy-3-methyl-5-oxo-pyrrolidine-2-carbothioic acid S-benzyl ester] |
